In assay [1] the test system is unhealthy skin gene expression signature. Put plainly: Connectivity mapping (C-map) query of stored skin instances with the unhealthy skin gene expression signature. The class given is cell-based, human. To be noted: text statement on highest-ranked results of Table C. The text has this: Referring to FIG. 6 and FIG. 7, an exemplary method for querying instances with one or more gene expression signatures will now be described. Broadly, the method comprises querying a data architecture of stored instances (e.g., skin instances) with one or more gene signatures (e.g., an unhealthy skin gene expression signature), and applying a statistical method to determine how strongly the gene expression signature genes match the regulated genes in an instance.
The up-score and down-score have, for example, values between +1 and −1. […] In these embodiments, the gene expression signature comprises the combination of the up list and the down list. […]
The combination of the up-score and down-score is used to calculate an overall connectivity score for each instance, and in embodiments where up- and down-score ranges are set between −1 and +1, the connectivity score ranges from −2 to +2, and represents the strength of match between a query gene expression signature and the instance. The sign of the overall score is determined by whether the instance links positivity or negatively to the signature. […]

The test system of assay [2] is dandruff. Put plainly: Effect of ZPT-containing shampoo on the unhealthy skin gene expression signature in dandruff sufferers (Study 2). The class given is in vivo, human. To be noted: dandruff subjects, scalp biopsies, three weeks of treatment. The protocol:
Hierarchical Cluster Analysis of Dandruff vs. Non-Dandruff (Study 1): Genome-wide transcriptional profiles of the dandruff condition and healthy scalp were assessed using RNA extracted from full thickness scalp biopsies. […] Each row in FIG. 9 represents a single probe set and each column represents the group average of all subjects (not a single microarray experiment).
Effect of zinc pyrithione (ZPT) on the Unhealthy Skin Gene Expression Signature in Dandruff Sufferers (Study 2): We examined the effect of ZPT on the transcriptomic profile in dandruff sufferers during a course of treatment known to resolve the key symptoms of the condition (flake and itch) and substantially restore the scalp skin histology and cell surface biomarker profile to a healthy state. In this study, we were able to replicate our key transcriptomic findings from Study 1 in a second study population. It is notable that using the expression levels of the same 400 probe sets in the unhealthy gene expression signature, which all satisfied the p<0.05 criterion, hierarchical cluster analysis again clearly separated Dandruff from Non-dandruff (see All Dandruff Baseline vs. Non-Dandruff Baseline). […] This underscores the fundamental importance of the gene products associated with this signature to skin homeostasis.

With `CC1=C(/C=C/C(C)=C/C=C/C(C)=C/C(=O)O)C(C)(C)CCC1` [All-trans retinoic acid], in assay [1], the “rank of instances in C-map query (linkage score)” value is listed as “strongest negative linkage scores”.
For `NC(=O)c1cccnc1` [Nicotinamide], the “rank of instances in C-map query (linkage score)” value in assay [1] is on record as “strongest negative linkage scores”.
On to zinc pyrithione [zinc pyriothione], for which the “gene expression profile (400 probe sets of unhealthy skin signature), hierarchical cluster analysis” value in assay [2] was “reversal of the unhealthy skin gene expression signature”.

Source of the values: patent US10036741B2, “Systems, models and methods for identifying and evaluating skin-active agents effective for treating an array of skin disorders” (The Procter & Gamble Company, priority 2012, dated 2018).
